Molecules are shown by their SMILES.

Assay [1] concerns the target T1, human recombinant ghrelin receptor (GHS-R1a) (Homo sapiens, UniProt Q92847).
T1 construct: host or cells: CHO-K1
The experiment in a line: Calcium assay, CHO-K1 cells expressing hGHS-R1a (Fluo-4). It counts as cell-based. The settings on record: for Emax: CHO-K1, relative to the Emax induced by MK-0677 (defined as 100%), read-out: hGHS-R1a Ca assay Emax/%. As to the method: (§1) Chinese hamster ovary (CHO-K1) cells expressing human recombinant ghrelin receptor (GHS-R1a) were purchased from Euroscreen (ES-410-C) and propagated in UltraCHO medium containing glutamine and supplemented with 1% heat inactivated foetal calf serum (FCS), 100 U/ml penicillin, 100 mg/l streptomycin and 0.8 g/l geneticin. Cells were sub-cultured twice a week with a 1:10 dilution. For passaging, cells were washed with 1× DPBS without calcium and magnesium, trypsinised for 10 min with 0.05% Trypsin/EDTA and resuspended in cell culture medium.
Cells were diluted to achieve 1×10^6 cells/ml, seeded in 384-well black clear bottom CellBind plates at 25000 cells/well (25u1) and incubated overnight at 37° C./5% CO2 Cells were expected to be 85-90% confluent on the day of assay (checked under the microscope) to ensure a high quality assay. Media was manually removed and 40 μl of loading solution containing probenecid and Fluo-4 no wash dye (a calcium indicator, Invitrogen F36206) were added to each well. After 30 min at 37° C. followed by another 30 min at RT, cpds were added to the wells. To generate a dose response up to 30 μM, 10 mM compound stocks in 100% (v/v) DMSO were firstly diluted in 50% (v/v) DMSO. Then, serial dilutions aimed at a full logarithmic dose responses (8 point) were performed in assay buffer [1×HBSS, 20 mM Hepes, 0.1% (w/v) BSA] to give 2.5% (v/v) DMSO and 5× final compound concentrations. The final assay DMSO concentration was 0.5% (v/v). After loading the cells with Fluo-4 containing solution, plates were read on a CeIlLux instrument (Perkin Elmer). A protocol set up to add 10 μl of 5× compound and to read the plate for 60sec after adding the compound at 17th sec was used. Fluorescence excitation took place at 494 nm and emission at 516 nm. EC50 values of agonists were calculated by fitting the percent stimulation over background [(Max-Min)/Min] using the nonlinear logistic function of the Prism 5 software (GraphPad, USA).

The target of assay [2] is T1, human recombinant ghrelin receptor (GHS-R1a). The experiment in a line: cAMP assay (HTRF), CHO-hGHS-R1a cells. It counts as cell-based. The conditions noted are these: for Emax: relative to the ghrelin response (defined as 100%). As to the method:
as §1
The Homogeneous Time-Resolved Fluorescence (HTRF) cAMP dynamic 2 kit (Cisbio International, France) was used as follows. CHO-hGHS—R1a or CHO-rGHS—R1a cells were seeded in a volume of 25 μl culture media at 10,000 cells/well (400,000 cells/ml) in Greiner white 384-well high volume plates and incubated overnight (18-24 h) at 37° C./5% CO2. Then, media was removed and 6 μl assay buffer [HBSS, 10 mM Hepes, 0.2% (w/v) BSA, 1.7 mM IBMX, (pH7.4)] were added to the wells. To generate a dose response up to 30 μM, 10 mM compound stocks in 100% (v/v) DMSO were firstly diluted in 50% (v/v) DMSO followed by a further dilution into assay buffer. Then, 4 μl of 2.5× compound (dose response as 9 point log serial dilution in assay buffer from 30 μM as maximum concentration) were added to each well achieving a final DMSO assay concentration of 0.8% (v/v). 0.1 μM forskolin was added as positive control. After 30 min (rGHS—R1a cell line) or 60 min (hGHS—R1a cell line) incubation at 37° C./5% CO2, 5 μl of cAMP-d2 and 5 μl of anti-cAMP antibody-cryptate, (both made in lysis buffer), were added to the plate followed by 1 h incubation at RT. During this time, cAMP produced by the cells competed with cAMP-d2 for the anti-cAMP antibody-cryptate molecule. Then, the plate was read on the Pherastar instrument (BMG, Germany) at two different emission wavelengths ([…]). Increasing levels of endogenous cAMP produced by cells could be followed by a decrease of FRET fluorescent signal and viceversa. Values represented by a change in arbitrary fluorescence ratios (665/620) were converted into cAMP concentrations by using a standard curve, the reagents for which were supplied with the kit. EC50 values of agonists were calculated using the nonlinear logistic function of the Prism 5 software (GraphPad, USA). Emax were expressed as relative values of the ghrelin response, which was defined as 100%.

In a further assay the test system is rat fundus. The experiment in a line: Rat fundus contractility assay (EFS-induced contraction of muscle strips). The settings on record: for EC50: increase of EFS-induced contraction, mean of preparations from at least 3 animals; for Emax: relative to the response to ghrelin (100 nM), defined as 100%. Here is the method: Male Sprague Dawley rats (180-250 g) were culled by cervical dislocation and the fundus was removed. Each fundus was placed on a Krebs Henseleit (KH) buffer soaked dissection dish and cut along the long curvature to form a flattened sheet that was pinned in each corner. Four adjacent longitudinal strips (10×3 mm) were cut and the mucosa removed by sharp dissection. Each muscle strip was mounted in a 10 ml organ bath containing oxygenated KH at 37° C. Each strip was connected to an isometric force transducer, calibrated initially using a 5 g weight. The signal (g tension) was amplified and responses recorded by a Powerlab data capture system, connected to a computer running Labchart software (version 5.0). Tissues were placed under 1 g tension for an equilibration period of 30 min or until the baseline tension had stabilised. Carbachol (CCh, 100 nM) was then administered to establish the maximum contractile response of each preparation. Tissues were washed thoroughly and left for 30 min to re-equilibrate. Next, the muscle strips underwent electrical field stimulation (EFS). Maximal EFS pulse trains of 12V, 5 Hz, 0.1 msec pulse width, for 2 sec every 60 sec were applied until consistent electrically-stimulated phasic contractions were recorded. The voltage was then reduced in 1V increments until a consistent submaximal (EC50-75) EFS response was observed. Ghrelin (100 nM) was administered and left until a maximum response was obtained. Tissues were then washed thoroughly and left for 30 min. Once the EFS-induced contraction had re-stabilised, cumulative additions (10 nM-10 μM) of each test compound were administered. Individual responses were calculated by determining the peak of the EFS-induced contraction minus the baseline. […] The mean EC50 value for compounds was generated from data obtained on stomach preparations from at least 3 different animals.

T1 sequence (Q92847 whole entry): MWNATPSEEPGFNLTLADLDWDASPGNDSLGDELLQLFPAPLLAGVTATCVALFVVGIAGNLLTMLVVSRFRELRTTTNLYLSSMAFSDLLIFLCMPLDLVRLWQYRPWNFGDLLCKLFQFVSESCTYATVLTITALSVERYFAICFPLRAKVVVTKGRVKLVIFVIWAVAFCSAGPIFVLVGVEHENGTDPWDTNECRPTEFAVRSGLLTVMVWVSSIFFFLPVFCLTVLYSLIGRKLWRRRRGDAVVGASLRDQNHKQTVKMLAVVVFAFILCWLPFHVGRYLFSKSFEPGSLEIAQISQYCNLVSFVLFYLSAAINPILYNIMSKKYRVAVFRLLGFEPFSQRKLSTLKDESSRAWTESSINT

With `CN1C[C@H](c2ccccc2)[C@]2(CCCN(C(=O)[C@@H](COCc3ccccc3)NC(=O)C(C)(C)N)C2)C1=O` (single isomer, unassigned) [Example 1.0(i)], the Emax in assay [1] is 97%; in assay [2], 130%; in the assay on rat fundus (Rattus norvegicus), 104%. This molecule also yielded an EC50 with rat fundus (Rattus norvegicus) of 1700 nM.
As to `CN1C[C@@H](c2ccccc2)[C@@]2(CCCN(C(=O)[C@@H](COCc3ccccc3)NC(=O)C(C)(C)N)C2)C1=O` (single isomer, unassigned) [Example 1.0(ii)], the Emax turned out to be 100% in assay [1], 141% in assay [2] and 66% with rat fundus (Rattus norvegicus). Moreover, in the assay on rat fundus (Rattus norvegicus), the EC50 turned out to be 13 nM.
`CC(C)N1CC(c2ccccc2)C2(CCCN(C(=O)[C@@H](COCc3ccccc3)NC(=O)C(C)(C)N)C2)C1=O` (single isomer, unassigned) [Example 1.5]: the Emax was determined as 96% in assay [1], 195% in assay [2] and 80% with rat fundus (Rattus norvegicus). Besides, in the assay on rat fundus, the EC50 worked out at 35 nM.
As to `CN1CC(c2ccc(F)cc2)C2(CCCN(C(=O)[C@@H](Cc3c[nH]c4ccccc34)NC(=O)C(C)(C)N)C2)C1=O` (single isomer, unassigned) [Example 1.11], the values for the Emax (in assay [1]; in assay [2]; in the assay with rat fundus (Rattus norvegicus)) were 102%, 289% and 99%, respectively. In addition, the EC50 in the assay with rat fundus (Rattus norvegicus) amounted to 24 nM.
As for `CC(C)N1CC(c2ccc(F)cc2)C2(CCCN(C(=O)[C@@H](Cc3cn(C)c4ccccc34)NC(=O)C(C)(C)N)C2)C1=O` (single isomer, unassigned) [Example 1.15], the Emax in assay [1] turned out to be 112%; in assay [2], 331%; with rat fundus (Rattus norvegicus), 123%. The molecule also gave an EC50 in the assay on rat fundus (Rattus norvegicus) of 36 nM.
Consider `CN(C)C(=O)CN1CC(c2ccccc2)C2(CCCN(C(=O)[C@@H](COCc3ccccc3)NC(=O)C(C)(C)N)C2)C1=O` (single isomer, unassigned) [Example 1.16], for which the values for the Emax (in assay [1]; in assay [2]; in the assay with rat fundus (Rattus norvegicus)) were 101%, 210% and 124%, respectively. Besides, the EC50 with rat fundus (Rattus norvegicus) worked out at 13 nM.
The matching figures for `CNC(C)(C)C(=O)N[C@H](COCc1ccccc1)C(=O)N1CCCC2(C1)C(=O)N(C)CC2c1ccccc1` (single isomer, unassigned) [Example 1.17]: 107%, 124%, 113% and 137 nM.
With `CN1CC(c2ccccc2)C2(CCCN(C(=O)[C@@H](COCc3ccc(F)cc3)NC(=O)C(C)(C)N)C2)C1=O` (single isomer, unassigned) [Example 7.0, 2-Amino-N—[(R)-1-(4-fluoro-benzyloxymethyl)-2-(4S,5R)-2-methyl-1-oxo-4-phenyl-2,7-diaza-spiro[4.5]clec-7-yl)-2-oxo-ethyl]-2-methyl-propionamide or 2-Amino-N—[(R)-1-(4-fluoro-benzyloxymethyl)-2-(4R,5S)-2-methyl-1-oxo-4-phenyl-2,7-diaza-spiro[4.5]clec-7-yl)-2-oxo-ethyl]-2-methyl-propionamide], the Emax in assay [1] was found to be 83%; in assay [2], 153%.
`CN1CC(c2ccccc2)C2(CCN(C(=O)[C@@H](COCc3ccccc3)NC(=O)C(C)(C)N)C2)C1=O` (single isomer, unassigned) [Example 8.0]: the Emax in assay [1] stood at 101%; in assay [2], 129%. Also, the EC50 in assay [1] (CHO-K1 cells expressing hGHS-R1a, read-out: hGHS-R1a Ca assay EC50/μM) turned out to be 0.0046 µM; in assay [2] (CHO-hGHS-R1a cells, 60 min incubation, maximum concentration 30 μM), 2.38 µM.
Take `CN1CC(c2ccccc2)C2(CCCN(C(=O)[C@@H](COCc3ccccc3)NC(=O)C(C)(C)N)CC2)C1=O` (single isomer, unassigned) [Example 9.0(iv)]: the Emax in assay [1] came out at 96%; in assay [2], 127%.
For the molecule `CCC(N)(CC)C(=O)N[C@H](COCc1ccccc1)C(=O)N1CCC[C@@]2(C1)C(=O)N(C)C[C@H]2c1ccccc1` [Example 1.71, 2-amino-N-((R)-3-(benzyloxy)-1-((4S,5R)-2-methyl-1-oxo-4-phenyl-2,7-diazaspiro[4.5]decan-7-yl)-1-oxopropan-2-yl)-2-ethylbutanamide], the Emax in assay [1] turned out to be 108%; in assay [2], 111%.
Turning to `Cc1ccc(COC[C@@H](NC(=O)C(C)(C)N)C(=O)N2CCCC3(C2)C(=O)N(C)CC3c2ccc(F)cc2)cc1` (stereo partly drawn) [Example 1.72, 2-amino-N-((2R)-1-(4-(4-fluorophenyl)-2-methyl-1-oxo-2,7-diazaspiro[4.5]decan-7-yl)-3-((4-methylbenzyl)oxy)-1-oxopropan-2-yl)-2-methylpropanamide], the Emax was determined as 110% in assay [1] and 147% in assay [2].
Consider `CN1CC(c2ccccc2)C2(CCCN(C(=O)[C@@H](COCc3ccccc3)NC(=O)C(C)(N)C(F)(F)F)C2)C1=O` (stereo partly drawn) [Example 1.73, 2-amino-N-((2R)-3-(benzyloxy)-1-(2-methyl-1-oxo-4-phenyl-2,7-diazaspiro[4.5]decan-7-yl)-1-oxopropan-2-yl)-3,3,3-trifluoro-2-methylpropanamide], for which the Emax was 79% in assay [1] and 1% in assay [2].
Take `COc1ccc(C2CN(C)C(=O)C23CCCN(C(=O)[C@@H](COCc2ccccc2)NC(=O)C(C)(C)N)C3)cc1` (stereo partly drawn) [Example 1.74, 2-amino-N-((2R)-3-(benzyloxy)-1-(4-(4-methoxyphenyl)-2-methyl-1-oxo-2,7-diazaspiro[4.5]decan-7-yl)-1-oxopropan-2-yl)-2-methylpropanamide]: the values for the Emax in assay [1] and in assay [2] were 103% and 123%, respectively.
Take `CC(C)(C)CN1CC(c2ccccc2)C2(CCCN(C(=O)[C@@H](COCc3ccccc3)NC(=O)C(C)(C)N)C2)C1=O` (stereo partly drawn) [Example 1.75, 2-amino-N-((2R)-3-(benzyloxy)-1-(2-neopentyl-1-oxo-4-phenyl-2,7-diazaspiro[4.5]decan-7-yl)-1-oxopropan-2-yl)-2-methylpropanamide]: the Emax in assay [1] worked out at 87%; in assay [2], 176%.

Values taken from patent publication US20130296358A1, “3-SPIROCYCLIC PIPERIDINE DERIVATIVES AS GHRELIN RECEPTOR AGONISTS” (priority 2012, published 2013).
